Reference: paper PMC9743095 (Journal of Medicinal Chemistry, 2022)
Like-named read-outs stand apart in the source and are kept apart here.

Key:
Format in all cases: cell-based
CRL cell line = test: ATP viability assay; details: for CC50: Homo sapiens, read-out: LC50
Protocol: (§1) HL-60 (ATCC CCL-240), K562 (ATCC CCL-243), CCRF-CEM (ATCC CRM-CCL-119), and RL (ATCC CRL-2261) leukemia cell lines were obtained from the American Type Culture Collection (ATCC), Middlesex. HL-60 and K562 cell lines are deoxynucleotidyl transferase-negative (TdT^–ve), whereas CCRF-CEM cell line is TdT^+ve. They were cultured in RPMI-1640 medium (Sigma-Aldrich, U.K.), which were supplemented with 10% fetal bovine serum (FBS) (PAA Laboratories), 1% amphotericin B (5.5 mL), and 1% penicillin/streptomycin (5.5 mL) (PAA Laboratories) and grown in flasks at 37 °C in an incubator with 5% CO2. For the studies with inhibitors, the cells were treated with 10 μM nitrobenzylthioinosine (NBTI, hENT inhibitor) or 1 μM EHNA (EHNA hydrochloride) or A-134974 (A-134974 dihydrochloride hydrate) and left for 5 min before adding the drug. The cells were then incubated for 2 h at 37 °C with 5% CO2.
(§2) The amount of ATP was used as a measurement of cell number and cell viability. ATP ViaLightTM plus assay kit (Lonza: Product No. LT07-121) to detect ATP in cells treated in luminescence compatible 96-well plates (initial concentration of cells was 1 × 10^4 cells/well) with Cordycepin and ProTides at concentrations of 0, 0.1, 0.5, 1, 5, and 10 μM, followed by incubation for 72 h at 37 °C in an incubator with 5% CO2. For inhibitor studies, 10 μM NBTI or 1 μM EHNA or A-134974 was added and left for 5 min before adding the drugs. After incubation, 50 μL of cell lysis reagent was added to the 96-well plates to release the intracellular ATP, followed by 100 μL of ATP monitoring reagent (AMR). The luminescent values of each well were determined using FLUOstar OPTIMA microplate reader (BMG Labtech), which converted ATP into light using luciferase enzyme. Therefore, the amount of luminescence produced was directly proportional to the amount of ATP.

HL-60 cell line = test: ATP viability assay; details: Homo sapiens
Protocol: as §1, §2

K562 cell line = test: ATP viability assay; details: Homo sapiens
Protocol: as §1, §2

CEM cell line = test: ATP viability assay; details: for CC50: Homo sapiens, CCRF-CEM, read-out: LC50
Protocol: as §1, §2

BxPC-3 = test: cells; details: for MI%: BxPC-3, maximum inhibitory effect over concentration range; for CC50: Homo sapiens, BXPC-3, 72 h, read-out: LC50
Protocol: (§3) The assay was contracted and carried out by WuXi AppTec (Shanghai) Co., Ltd. The tumor cell lines CCRF-CEM, HL-60, KG-1, MOLT-4, K562, MV4-11, THP-1, HEL92.1.7, NCI-H929, RPMI-8226, Jurkat, Z138, RL, HS445, HepG2, MCF-7, Bx-PC-3, HT29, MIA PaCa-2, and SW620 were seeded at cell densities of […] 10^3 cells/well in a 96-well plate the day before drug incubation. Then, the plates were incubated for 72 h with the different concentrations of compound to be tested. After the incubation period, 50 μL of MTS was added and the tumor cells were incubated for 4 h at 37 °C. The data were read and collected by a Spectra Max 340 absorbance microplate reader. The compounds were tested in duplicate with nine serial concentrations (3.16-fold titrations with 198 μM as the highest concentration), and the data were analyzed by XLfit software.

THP-1 = test: cells; details: for CC50: Homo sapiens, THP-1, 72 h, read-out: LC50; for MI%: THP-1, maximum inhibitory effect over concentration range
Protocol: as §3

HS445 = test: cells; details: for MI%: HS445, maximum inhibitory effect over concentration range; for CC50: Homo sapiens, Hs 445, 72 h, read-out: LC50
Protocol: as §3

K562 = test: cells; details: Homo sapiens; for Emax: read-out: MI%; for CC50: read-out: LC50
Protocol: as §3

NCI-H929 = test: cells; details: for CC50: Homo sapiens, NCI-H929, 72 h, read-out: LC50; for MI%: NCI-H929, maximum inhibitory effect over concentration range
Protocol: as §3

RPMI-8226 = test: cells; details: for CC50: Homo sapiens, RPMI-8226, 72 h, read-out: LC50; for MI%: RPMI-8226, maximum inhibitory effect over concentration range
Protocol: as §3

KG-1 = test: cells; details: Homo sapiens, KG-1, 72 h, read-out: LC50
Protocol: as §3

HT29 = test: cells; details: for MI%: HT29, maximum inhibitory effect over concentration range; for CC50: Homo sapiens, HT-29, 72 h, read-out: lC50
Protocol: as §3

Z138 = test: cells; details: for CC50: Homo sapiens, Z-138, 72 h, read-out: LC50; for MI%: Z138, maximum inhibitory effect over concentration range
Protocol: as §3

HEL92.1.7 = test: cells; details: for MI%: HEL92.1.7, maximum inhibitory effect over concentration range; for CC50: Homo sapiens, HEL 92.1.7, 72 h, read-out: LC50
Protocol: as §3

Jurkat = test: cells; details: for CC50: Homo sapiens, 72 h, read-out: LC50; for CC50 / MI%: Jurkat; for MI%: maximum inhibitory effect over concentration range
Protocol: as §3

HL-60 = test: cells; details: Homo sapiens; for Emax: read-out: MI%; for CC50: read-out: LC50
Protocol: as §3

MOLT-4 = test: cells; details: Homo sapiens; for Emax: read-out: MI%; for CC50: read-out: LC50
Protocol: as §3

MCF-7 = test: cells; details: Homo sapiens, MCF7, 72 h; for CC50: read-out: LC50; for Emax: read-out: MI%
Protocol: as §3

MV4-11 = test: cells; details: for CC50: Homo sapiens, MV4-11, 72 h, read-out: LC50; for MI%: MV4-11, maximum inhibitory effect over concentration range
Protocol: as §3

SW620 = test: cells; details: for CC50: Homo sapiens, SW-620, 72 h, read-out: LC50; for MI%: SW620, maximum inhibitory effect over concentration range
Protocol: as §3

Compound | CC50 (CRL cell line; 72 h) [µM] | CC50 (CEM cell line; 72 h) [µM] | MI% (BxPC-3) [%] | CC50 (BxPC-3) [µM] | CC50 (THP-1) [µM] | MI% (THP-1) | MI% (HS445) [%] | CC50 (HS445) [µM] | CC50 (K562; K562, 72 h) [µM] | CC50 (NCI-H929) [µM] | MI% (NCI-H929) [%] | CC50 (RPMI-8226) [µM] | MI% (RPMI-8226) [%] | CC50 (KG-1) [µM] | MI% (HT29) [%] | CC50 (HT29) [µM] | CC50 (Z138) [µM] | MI% (Z138) [%] | MI% (HEL92.1.7) [%] | CC50 (HEL92.1.7) [µM] | also measured
Nc1ncnc2c1ncn2[C@@H]1O[C@H](CO)C[C@H]1O [3′-dA, 3′-Deoxyadenosine, reference compound] | 24.5 | 19.5 | 22 | > 198 | > 198 | –3% | 2 | > 198 | 59.3 | > 198 | 24 | > 198 | 1 | 70.8 | 44 | > 198 | 12.2 | 95 | 88 | 68.9 | improvement of LC50 on inhibition of ADA with EHNA (CRL cell line; CRL): 2 fold; CC50 (CRL cell line): 7.3 µM; CC50 (HL-60 cell line; HL-60, 72 h, read-out: LC50): 11.4 µM; CC50 (K562 cell line; K562, 72 h, read-out: LC50): 10.9 µM; improvement of LC50 on inhibition of ADA with EHNA (CEM cell line; CEM): 16 fold; CC50 (CEM cell line): 11.5 µM; Emax (K562; 72 h, K562, maximum inhibitory effect over concentration range): 88%; CC50 (Jurkat): > 198 µM; MI% (Jurkat): 20%; Emax (HL-60; 72 h, HL-60, maximum inhibitory effect over concentration range): 88%; CC50 (HL-60; HL-60, 72 h): 76.8 µM; Emax (MOLT-4; 72 h, MOLT-4, maximum inhibitory effect over concentration range): 52%; CC50 (MOLT-4; MOLT-4, 72 h): 152 µM; CC50 (MCF-7): 34.2 µM; Emax (MCF-7; MCF-7, maximum inhibitory effect over concentration range): 78%; CC50 (MV4-11): > 198 µM; MI% (MV4-11): 1%; CC50 (SW620): > 198 µM; MI% (SW620): 10%
CCOC(=O)CCc1ccccc1OP(=O)(N[C@@H](C)C(=O)OCc1ccccc1)OC[C@@H]1C[C@@H](O)[C@H](n2cnc3c(N)ncnc32)O1 (some centres unmarked) [Compound 7e] | 3.4 | 4.3 | 78 | 60.9 | 36.7 | 100% | 92 | 42.7 | 175 | 7.57 | 100 | 31.1 | 106 | 102 | 89 | 25.2 | 68.2 | 76 | 99 | 14.5 | CC50 (HL-60 cell line; HL-60, Table S2, no inhibitors, 72 h, read-out: LC50 (the source's name)): 8.3 µM; CC50 (K562 cell line; K562, Table S2, no inhibitors, 72 h, read-out: LC50 (the source's name)): 6.3 µM; Emax (K562; K562, 72 h): 61%; CC50 (Jurkat): 4.75 µM; MI% (Jurkat): 100%; CC50 (HL-60; HL-60, 72 h): 78.5 µM; Emax (HL-60; HL-60, 72 h): 74%; CC50 (MOLT-4; MOLT-4, 72 h): 12.6 µM; Emax (MOLT-4; MOLT-4, 72 h): 97%; CC50 (MCF-7): 15.8 µM; Emax (MCF-7): 78%; CC50 (MV4-11): 3.27 µM; MI% (MV4-11): 100%; CC50 (SW620): 43.4 µM; MI% (SW620): 90%
C[C@H](NP(=O)(OC[C@@H]1C[C@@H](O)[C@H](n2cnc3c(N)ncnc32)O1)Oc1ccccc1)C(=O)OCc1ccccc1 (stereo partly drawn) [Compound 7a, (Rp)- and (Sp)-3′-Deoxyadenosine 5′-O-phenyl-(benzoxy-L-alaninyl)-phosphate] | 2.1 | 0.87 | 81 | 23.6 | 65.5 | 74% | 98 | 30.5 | 6.1 | 6.07 | 100 | 14.7 | 96 | 17.4 | 93 | 13.4 | 27 | 95 | 100 | 8.07 | CC50 (CRL cell line): 3.6 µM; CC50 (HL-60 cell line; HL-60, 72 h, read-out: LC50): 4.6 µM; CC50 (K562 cell line; K562, 72 h, read-out: LC50): 2.4 µM; LC50 change on ADA inhibition by EHNA (CEM cell line; CEM): did not lead to any LC50 changes; CC50 (CEM cell line): 1.4 µM; Emax (K562; K562, 72 h): 92%; CC50 (Jurkat): 1.44 µM; fold more active than 3′-dA (Jurkat; Jurkat cell line, from LC50): approximately 200 fold; MI% (Jurkat): 100%; CC50 (HL-60; HL-60, 72 h): 17.8 µM; Emax (HL-60; HL-60, 72 h): 97%; CC50 (MOLT-4; MOLT-4, 72 h): 0.51 µM; Emax (MOLT-4; MOLT-4, 72 h): 98%; CC50 (MCF-7): 3.07 µM; Emax (MCF-7): 94%; CC50 (MV4-11): 2.1 µM; MI% (MV4-11): 99%; CC50 (SW620): 24.9 µM; MI% (SW620): 85%
